The source made the active and inactive calls. No cut-off for these calls is given here.
What was measured:
[1] = system: A549; experiment: Induction of morphological changes in human A549 cells assessed as reduction in nucleus volume at 0.17 mM after 72 hrs by uranyl acetate/lead citrate staining based transmission electron microscopic imaging analysis; type: functional, cell-based
[2] = system: A549; experiment: Induction of morphological changes in human A549 cells assessed as large uplifted structures on cell surface by measuring particle width at 0.087 mM after 24 hrs by atomic force microscopic imaging analysis (reference value: 0.147 micrometer); type: functional
[3] = Cytotoxicity against human PC3 cells assessed as decrease in cell viability after 24 hrs by MTT assay; type: functional, cell-based; conditions: PC-3, 24 h
[4] = system: A549; experiment: Induction of morphological changes in human A549 cells assessed as formation of apoptotic bodies at 0.17 mM after 72 hrs by uranyl acetate/lead citrate staining based transmission electron microscopic imaging analysis; type: functional, cell-based
[5] = system: A549; experiment: Induction of apoptosis in human A549 cells assessed as late apoptotic cells at 0.17 mM after 48 hrs by annexin V/propidium iodide double staining based flow cytometry (reference value: 0.08%); type: functional
[6] = system: A549; experiment: Induction of apoptosis in human A549 cells after 24 to 48 hrs by annexin V/propidium iodide double staining based flow cytometry; type: functional, cell-based
[7] = Cell cycle arrest in human A549 cells assessed as accumulation at G0/G1 phase at 0.087 mM after 24 hrs by propidium iodide staining based flow cytometry (reference value: 33.96%); type: functional
[8] = system: A549; experiment: Induction of morphological changes in human A549 cells assessed as large uplifted structures on cell surface by measuring average particle height at 0.087 mM after 24 hrs by atomic force microscopic imaging analysis (reference value: 0.144 micrometer); type: functional
[9] = system: A549; experiment: Induction of apoptosis in human A549 cells assessed as necrotic cells at 0.087 mM after 24 hrs by annexin V/propidium iodide double staining based flow cytometry (reference value: 0.02%); type: functional
[10] = system: A549; experiment: Induction of apoptosis in human A549 cells assessed as early apoptotic cells at 0.17 mM after 48 hrs by annexin V/propidium iodide double staining based flow cytometry (reference value: 1.27%); type: functional
[11] = system: A549; experiment: Induction of morphological changes in human A549 cells assessed as increased cellular granularity at 0.17 mM after 72 hrs by uranyl acetate/lead citrate staining based transmission electron microscopic imaging analysis; type: functional, cell-based
[12] = system: A549; experiment: Effect on Bcl2 expression in human A549 cells assessed as ratio of Bcl-2 to beta-actin mRNA level at 0.17 mM by qRT-PCR analysis (reference value: 15.0312); type: functional
[13] = system: A549; experiment: Effect on p53 expression in human A549 cells assessed as ratio of p53 to beta-actin mRNA level at 0.17 mM by qRT-PCR analysis (reference value: 10.87); type: functional
[14] = system: A549; experiment: Induction of apoptosis in human A549 cells at 0.087 to 0.17 mM by annexin V/propidium iodide double staining based flow cytometry; type: functional, cell-based; conditions: TDE = time-dependent effect
[15] = system: A549; experiment: Induction of apoptosis in human A549 cells assessed as necrotic cells at 0.17 mM after 48 hrs by annexin V/propidium iodide double staining based flow cytometry (reference value: 0%); type: functional
[16] = system: A549; experiment: Induction of morphological changes in human A549 cells assessed as cell surface damage by measuring average roughness value at 0.087 mM after 24 hrs by atomic force microscopic imaging analysis (reference value: 1.11 micrometer); type: functional
[17] = system: A549; experiment: Induction of morphological changes in human A549 cells assessed as cell shrinkage at 0.17 mM after 72 hrs by uranyl acetate/lead citrate staining based transmission electron microscopic imaging analysis; type: functional
[18] = Cell cycle arrest in human A549 cells assessed as accumulation at S phase at 0.087 mM after 24 hrs by propidium iodide staining based flow cytometry (reference value: 34.42%); type: functional
[19] = Cytotoxicity against HFB4 cells assessed as decrease in cell viability after 24 hrs by MTT assay; type: toxicity, cell-based; conditions: human
[20] = system: A549; experiment: Induction of morphological changes in human A549 cells assessed as formation of membrane blebs at 0.17 mM after 72 hrs by uranyl acetate/lead citrate staining based transmission electron microscopic imaging analysis; type: functional, cell-based
[21] = system: A549; experiment: Effect on caspase-3 expression in human A549 cells assessed as ratio of caspase-3 to beta-actin mRNA level at 0.17 mM by qRT-PCR analysis (reference value: 6.398); type: functional
[22] = system: A549; experiment: Induction of apoptosis in human A549 cells assessed as late apoptotic cells at 0.087 mM after 24 hrs by annexin V/propidium iodide double staining based flow cytometry (reference value: 0.21%); type: functional
[23] = system: A549; experiment: Induction of apoptosis in human A549 cells assessed as viable cells at 0.17 mM after 48 hrs by annexin V/propidium iodide double staining based flow cytometry (reference value: 98.6%); type: functional; conditions: A549, 48 h, read-out: Activity
[24] = Cell cycle arrest in human A549 cells assessed as accumulation at G2/M phase at 0.087 mM after 24 hrs by propidium iodide staining based flow cytometry (reference value: 26.63%); type: functional
[25] = system: A549; experiment: Induction of apoptosis in human A549 cells assessed as viable cells at 0.087 mM after 24 hrs by annexin V/propidium iodide double staining based flow cytometry (reference value: 98.85%); type: functional; conditions: A549, 24 h, read-out: Activity
[26] = system: A549; experiment: Induction of morphological changes in human A549 cells assessed as nuclear chromatin condensation and margination at 0.17 mM after 72 hrs by uranyl acetate/lead citrate staining based transmission electron microscopic imaging analysis; type: functional, cell-based
[27] = system: A549; experiment: Induction of morphological changes in human A549 cells assessed as change in mitochondrial morphology at 0.17 mM after 72 hrs by uranyl acetate/lead citrate staining based transmission electron microscopic imaging analysis; type: functional, cell-based
[28] = system: A549; experiment: Induction of morphological changes in human A549 cells assessed as larger uplifted particles on cell surface at 0.087 mM after 24 hrs by atomic force microscopic imaging analysis; type: functional, cell-based
[29] = system: A549; experiment: Induction of apoptosis in human A549 cells assessed as increase in caspase-3 activity at 0.17 mM using Ac-DEVD-pNA as substrate after 48 hrs by colorimetric assay (reference value: 0.005); type: functional
[30] = system: A549; experiment: Induction of morphological changes in human A549 cells assessed as large uplifted structures on cell surface by measuring particle length at 0.087 mM after 24 hrs by atomic force microscopic imaging analysis (reference value: 0.161 micrometer); type: functional
[31] = system: A549; experiment: Induction of apoptosis in human A549 cells assessed as early apoptotic cells at 0.087 mM after 24 hrs by annexin V/propidium iodide double staining based flow cytometry (reference value: 0.91%); type: functional
[32] = Cytotoxicity against human HCT116 cells assessed as decrease in cell viability after 24 hrs by MTT assay; type: functional, cell-based; conditions: HCT-116, 24 h
[33] = system: A549; experiment: Induction of morphological changes in human A549 cells assessed as small membrane protrusions on cell surface at 0.087 mM after 24 hrs by atomic force microscopic imaging analysis; type: functional, cell-based
[34] = system: A549; experiment: Effect on Bax expression in human A549 cells assessed as ratio of Bax to beta-actin mRNA level at 0.17 mM by qRT-PCR analysis (reference value: 9.0641); type: functional
[35] = Cytotoxicity against human A549 cells assessed as decrease in cell viability after 24 hrs by MTT assay; type: functional, cell-based; conditions: A549, 24 h
[36] = system: A549; experiment: Induction of morphological changes in human A549 cells assessed as change in mitochondrial number at 0.17 mM after 72 hrs by uranyl acetate/lead citrate staining based transmission electron microscopic imaging analysis; type: functional, cell-based

SMILES: O=C(Nc1ccccc1)c1nn(-c2ccccc2)/c(=N/NC(=O)C23CC4CC(CC(C4)C2)C3)s1
- Activity [1]: Active
- Activity [2]: 0.134 um
- IC50 [3]: 163 µM
- Activity [4]: Active
- Activity [5]: 0.18%
- Activity [6]: Dose-dependent effect
- Activity [7]: 29.2%
- Activity [8]: 0.161 um
- Activity [9]: 0%
- Activity [10]: 16.2%
- Activity [11]: Active
- Ratio [12]: 8.323
- Ratio [13]: 13.73
- Activity [14]: Tde
- Activity [15]: 0%
- Activity [16]: 1.29 um
- Activity [17]: Active
- Activity [18]: 68.9%
- IC50 at 24 h [19]: 218 µM
- Activity [20]: Active
- Ratio [21]: 12.327
- Activity [22]: 0.61%
- viability at 170 µM [23]: 83.6%
- Activity [24]: 1.97%
- viability at 87 µM [25]: 89%
- Activity [26]: Active
- Activity [27]: Active
- Activity [28]: Active
- OD [29]: 0.021
- Activity [30]: 0.142 um
- Activity [31]: 10.36%
- IC50 [32]: 168 µM
- Activity [33]: Active
- Ratio [34]: 18.781
- IC50 [35]: 87 µM
- Activity [36]: Active

SMILES: O=c1[nH]cc(F)c(=O)[nH]1 [FLUOROURACIL]
- IC50 [3]: 1200 µM
- IC50 at 24 h [19]: > 5000 µM
- IC50 [32]: 2000 µM
- IC50 [35]: 2900 µM
